Drawing on PubChem BioAssay (NCI), this text covers TGI and GI50 for 21 compounds.

What all share (experiment): inhibition of tumour cell growth, NCI panel, 48 h
Assay [1] relates to A498 renal.
Assay [2] deals with ACHN renal.
Assay [3] deals with CAKI-1 renal.
In assay [4] the test system is HCT-116 colon.
Assay [5] relates to HOP-62 NSCLC.
Assay [6] relates to MALME-3M melanoma.
In assay [7] the test system is NCI-H522 lung.
Assay [8] deals with OVCAR-3 ovarian.
Assay [9] relates to RXF 393 renal.
The subject of assay [10] is SK-MEL-2 melanoma.

Molecules are shown by their SMILES. Where “and” joins values, the source holds several entries; their conditions need not be identical. Identical values can stand only once.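 Method: 48-hour compound exposure of cells in 96-well plates, five concentrations, linear interpolation of endpoints. Here, GI50 denotes the concentration required for 50% inhibition of growth. Definition used: TGI = concentration required for complete inhibition of growth.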 A value given as a limit tells only on which side of the number the result lay.

In the case of `Cc1cccc(C(C)C)c1N1C(=O)C(=O)C(c2nc3ccccc3o2)C(=O)C1=O`, the TGI in [1], in assay [2], in [3], in [4], in assay [5] and in assay [6] was more than 100 µM throughout. Further, the TGI in [7] was 89.5 µM; in assay [8], more than 100 µM; in assay [9], more than 100 µM; in assay [10], more than 100 µM.

Regarding `COC(=O)/C(=N/Nc1cccc(Cl)c1)C(C(=O)C(=O)Nc1cccc(Cl)c1C)c1nc2ccccc2nc1C` (stereo not given), the TGI in assay [1], in assay [2], in assay [3], in assay [4], in assay [5] and in [6] was more than 100 µM each time. The TGI in assay [7], in assay [8], in [9] and in assay [10] was more than 100 µM throughout.

Consider `Nc1c(O)cc(N=C2C(=O)C=CC=C2C(=O)O)c(O)c1C(=O)O`, for which the TGI in assay [1] is more than 100 µM; in assay [2], more than 100 µM; in assay [3], more than 100 µM; in assay [4], more than 100 µM; in assay [5] it was more than 100 µM; in assay [6] it was more than 57.4 µM. Besides, the TGI is more than 100 µM in [7], more than 100 µM in assay [8], more than 31.6 µM in [9] and more than 91.2 µM in assay [10].

`Cc1ccc(-c2c3c(nn2-c2ccc(S(N)(=O)=O)cc2)-c2ccccc2C3)cc1`: the GI50 in assay [1] was 6.07 µM; in assay [2] it was 19.8 µM; in [3], 17.7 µM; in assay [4], 11 µM; in assay [5] it was 20.6 µM; in [6], 11.6 µM. Besides, the GI50 was 11.5 µM in assay [7], 15.6 µM in assay [8], 17 µM in assay [9] and 12.2 µM in assay [10]. Also, the TGI in [1] is 21 µM; in [2], 35.8 µM; in assay [3] it was 32.6 µM; in assay [4], 24.2 µM; in [5] it was 36.1 µM; in assay [6] it was 26.5 µM. Besides, the TGI in assay [7] is 27.6 µM; in [8], 30 µM; in [9] it was 43.7 µM; in assay [10], 26.6 µM.

In the case of `CC1=C(/C=C/C(C)=C/C=C/C(C)=C/C=N/NC(=S)NC(=S)N/N=C/C=C(C)/C=C/C=C(C)/C=C/C2=C(C)CCCC2(C)C)C(C)(C)CCC1`, the GI50 in [1] is 6.57 µM and 1.36 µM; in assay [2] it was 5.14 µM and 2.3 µM; in assay [3], 1.6 µM and 0.853 µM; in assay [4] it was 1.91 µM and 0.916 µM; in assay [5], 3.84 µM and 2.42 µM; in assay [6], 1.19 µM and 0.882 µM. For the same compound, the GI50 is 0.286 µM and 0.181 µM in assay [7]; 1.47 µM and 0.802 µM in assay [8]; 0.935 µM and 0.847 µM in [9]; 5.79 µM and 1.82 µM in assay [10]. In addition, the TGI in assay [1] was 13 µM and 5.83 µM; in assay [2], 11.4 µM and 7.9 µM; in [3] it was 7.12 µM and 2.9 µM; in assay [4], 8.4 µM and 2.23 µM; in assay [5], 11.3 µM and 5 µM; in assay [6], 5.91 µM and 2.63 µM. Further, the TGI in [7] was 1.07 µM and 0.795 µM; in assay [8], 4.92 µM and 1.53 µM; in assay [9] it was 1.87 µM and 1.58 µM; in [10], 12.5 µM and 6.97 µM.

Regarding `COc1ccccc1C1=C(Nc2ccccc2)C(=O)NC1=O`, the GI50 in [1] is more than 25 µM; in assay [2], more than 25 µM; in assay [3] it was more than 25 µM; in [4], 24.5 µM; in assay [5] it was more than 25 µM; in assay [6], more than 25 µM. For the same compound, the GI50 is more than 25 µM in [7], more than 25 µM in assay [8], 7.87 µM in assay [9] and more than 25 µM in assay [10]. Further, the TGI in assay [1], in [2], in [3], in [4], in assay [5] and in assay [6] was more than 25 µM each time. Also, the TGI in assay [7], in [8], in [9] and in [10] was more than 25 µM throughout.

As for `CN(COC(=O)c1ccccc1)c1nc(N(C)COC(=O)c2ccccc2)nc(N(C)COC(=O)c2ccccc2)n1`, the TGI was 40.8 µM in assay [1]; 78.7 µM in assay [2]; more than 86.2 µM in assay [3]; more than 100 µM in assay [4]; 40.6 µM in assay [5]; more than 100 µM in [6]. The TGI in [7] was more than 100 µM; in [8], more than 100 µM; in assay [9], 26.2 µM.

In the case of `ON(Cc1ccccc1)C(=S)c1ccccc1`, the TGI in assay [1] was more than 100 µM; in [2] it was 62.1 µM; in [4] it was 51.6 µM; in assay [5], 42.9 µM; in assay [6], more than 100 µM; in assay [7] it was 28 µM. The TGI in assay [8] was more than 67 µM; in [9], 85.3 µM; in [10] it was more than 100 µM.

`CN=C(NC(=S)N(C)C)N(C)C`: the TGI in assay [1], in assay [2], in assay [3], in assay [4], in assay [5] and in assay [6] was more than 100 µM in each case. The TGI in assay [7], in assay [9] and in assay [10] was more than 100 µM each time.

`Cc1cc(Nc2nc(-c3cccnc3)nc3ccccc23)n[nH]1`: the GI50 was 0.183 µM in [1]; 0.527 µM in [2]; 0.325 µM in assay [3]; 0.494 µM in [4]; 2.68 µM in [5]; more than 100 µM in [6]. For the same compound, the GI50 was 1.69 µM in assay [7], 3.74 µM in assay [8] and 0.388 µM in assay [9]. Also, the TGI was 0.985 µM in [1]; more than 100 µM in assay [2]; more than 100 µM in assay [4]; more than 89.8 µM in assay [5]; more than 100 µM in [6]; more than 100 µM in assay [7]. Further, the TGI in assay [8] was more than 100 µM; in assay [9], 2.52 µM.

Take `O=C(CC1(O)C(=O)Nc2ccc(Br)cc21)c1ccc(Cl)cc1Cl` (stereo not given): the TGI in assay [1] was more than 100 µM; in [2], more than 100 µM; in assay [4] it was more than 100 µM; in [5], more than 100 µM; in assay [6], more than 100 µM; in assay [7] it was 70.5 µM. Besides, the TGI in assay [8], in assay [9] and in [10] was more than 100 µM in each case.

With `COc1cc2c(cc1OC)C(Sc1ccc(SC)cc1)c1c(nc(N)c(C#N)c1N)O2` (stereo not given), the GI50 is 1.61 µM in [1]; 1.69 µM in assay [2]; 1.62 µM in assay [4]; 1.78 µM in assay [5]; 1.85 µM in assay [6]; 1.64 µM in assay [7]. Also, the values for the GI50 in assay [8], in [9] and in assay [10] were 1.62 µM, 1.25 µM and 1.48 µM, respectively. Moreover, the TGI in [1] turned out to be 3.28 µM; in assay [2], 3.06 µM; in assay [4], 3.01 µM; in assay [5], 3.26 µM; in assay [6] it was 3.35 µM; in assay [7], 3.03 µM. Besides, the TGI in assay [8] was determined as 3.06 µM; in [9], 2.52 µM; in [10], 2.9 µM.

For `O=[N+]([O-])c1ccc(Oc2nc(Nc3ccc(O[C@H]4CO[C@H]5[C@@H]4OC[C@@H]5O)c(Cl)c3)ncc2F)c(Cl)c1`, the GI50 in assay [1] is 0.669 µM; in [2], 0.79 µM; in [3] it was 2.28 µM; in assay [5], 1.63 µM; in [6], 1.07 µM; in assay [7], 1.17 µM. Besides, the GI50 is 1.4 µM in [8], 0.787 µM in assay [9] and 0.483 µM in [10]. Further, the TGI came out at 2.38 µM in assay [1]; 4.55 µM in [2]; 8.11 µM in assay [3]; 4.65 µM in assay [5]; 3.17 µM in assay [6]; 5.6 µM in assay [7]. Besides, the TGI in [8] amounted to 5.83 µM; in assay [9], 2.91 µM; in assay [10] it was 2.04 µM.

Consider `C[N+](C)(C)CC1CCC/C1=N/O` (stereo not given), for which the TGI in assay [1] was more than 100 µM; in assay [2], more than 100 µM; in assay [4], 46 µM; in assay [5], more than 100 µM; in assay [6], more than 100 µM; in [7], more than 100 µM. Further, the TGI in assay [8], in assay [9] and in assay [10] was more than 100 µM in each case.

Consider `O=C(NCCO)c1ccc([N+](=O)[O-])cc1`, for which the TGI in [1], in assay [3], in assay [5], in [6], in [7] and in [8] was more than 100 µM in each case. For the same compound, the TGI in assay [9] and in [10] was more than 100 µM each time.

Turning to `CS(=O)(=O)NNS(=O)(=O)c1ccccc1`, the TGI in [1], in assay [2], in assay [3], in assay [4], in assay [5] and in assay [6] was more than 100 µM in each case. Moreover, the TGI in assay [7], in assay [9] and in assay [10] was more than 100 µM in each case.

Take `Cn1c(=O)c(NC(=O)C(Cl)(Cl)Cl)nc2ccccc21`: the TGI in assay [1], in [3], in [4], in assay [5], in assay [6] and in [7] was more than 100 µM each time. Also, the TGI in assay [8], in [9] and in assay [10] was more than 100 µM throughout.

Regarding `CC(=O)c1c(CN(C)c2ccccc2)n([O-])c2ccccc2[n+]1=O`, the GI50 was 28.1 µM in assay [1]; 32.9 µM in assay [2]; 27.9 µM in assay [4]; 30.7 µM in [5]; 23.9 µM in assay [6]; 25.6 µM in assay [7]. For the same compound, the figures for the GI50 in assay [9] and in [10] were 21.2 µM and more than 100 µM, respectively. The TGI is more than 100 µM in assay [1]; more than 100 µM in assay [2]; more than 100 µM in assay [4]; more than 100 µM in assay [5]; 87.2 µM in assay [6]; 69.9 µM in [7]. In addition, the TGI in assay [9] was 62.7 µM; in assay [10], more than 100 µM.

Turning to `COc1cc(-c2cc(-c3ccc(Nc4ccnc5cc(Cl)ccc45)cc3)nc(N3CCOCC3)n2)cc(OC)c1OC`, the GI50 in [1] is 28.2 µM; in assay [2], 2.34 µM; in [4] it was 1.36 µM; in assay [5], 1.95 µM; in assay [6] it was 1.86 µM; in [7], 2.03 µM. Further, the GI50 in [8] was 1.89 µM; in assay [9] it was 1.8 µM; in assay [10], 11.8 µM. The TGI was determined as 74.4 µM in assay [1]; 5.02 µM in assay [2]; 3.34 µM in [4]; 4.09 µM in [5]; 3.97 µM in assay [6]; 5.03 µM in assay [7]. Besides, the TGI was determined as 3.67 µM in assay [8], 4.44 µM in assay [9] and 48 µM in assay [10].

As for `CC(=O)NC1C(OCc2ccccc2)OC(CO)C(O)C1OC(C)C(=O)N[C@@H](C)C(=O)N[C@H](CCC(=O)OCCNc1c2ccccc2nc2cccc([N+](=O)[O-])c12)C(N)=O` (stereo not given in full), the TGI in [1] came out at 0.0199 µM; in assay [2], 0.0071 µM; in [4], 0.00243 µM; in assay [6] it was 0.00356 µM; in assay [7], 0.00669 µM; in assay [8] it was 0.00427 µM. For the same compound, the TGI amounted to 0.00304 µM in assay [9] and 0.00414 µM in [10].

Consider `CN(C)c1nnnn1-c1c(N)n(C)c(=O)n(C)c1=O`, for which the TGI in assay [1], in assay [2], in assay [3], in assay [4], in [5] and in assay [6] was more than 100 µM in each case. Further, the TGI in assay [7], in assay [8] and in [10] was more than 100 µM each time.
